Experiment [1] has as its system PtdIns(4,5)P2 in the plasma membrane. Kind of experiment: Effect of ionomycin on plasma membrane PtdIns(4,5)P2 in cells microinjected with DAN-eENTH. Particulars: majority of DAN-eENTH released to the cytosol. The class given is cell-based. The procedure: [DAN-eENTH] was adjusted to give strong enough FB and FG signals for robust data analysis. […] Also, when [PtdIns(4,5)P2] in the plasma membrane was lowered by ionomycin treatment, a majority of DAN-eENTH was released to the cytosol.
NIH 3T3 cells were seeded into 8-well plates and grown at 37° C. in a humidified atmosphere of 95% air and 5% CO2 in Dulbecco's modified Eagle's medium (DMEM) (Invitrogen) supplemented with 10% (v/v) fatal bovine serum (Invitrogen). DAN-eENTH was delivered into the cells by microinjection using the Eppendorf InjectMan NI 2 system. All microscopy measurements and data analysis were performed as described above. For cell measurements, the minimal FB value was taken from the cytosol where PtdIns(4,5)P2 is absent and (FB)max was taken after the excess amount of exogenous PtdIns(4,5)P2 was delivered to the cell by either microinjection or as vesicle formulation. […] Thus, the cellular [PtdIns(4,5)P2] was determined from the observed (FB/FG) values using the in vitro calibration curve determined using POPC/POPS/PtdIns(4,5)P2 GUVs.

In experiment [2] the target is T1, DAN-eENTH: epsin 1 ENTH domain variant M10C/C96A/S4W, SEQ ID NO: 2, labeled with DAN at C10 (Homo sapiens, UniProt Q9Y6I3, C96A/M10C/S4W).
T1 construct: The Epsin1 ENTH domain (1-158 amino acids) was subcloned; GST (C, cleaved yes); made in house; host or cells: E. coli BL21 RIL codon plus
T1 sequence (Q9Y6I3 1-158 S4W/M10C/C96A): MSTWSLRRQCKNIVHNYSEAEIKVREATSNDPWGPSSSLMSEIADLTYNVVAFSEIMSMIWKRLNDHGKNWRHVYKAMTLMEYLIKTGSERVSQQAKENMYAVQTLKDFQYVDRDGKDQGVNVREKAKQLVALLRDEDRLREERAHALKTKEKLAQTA
Kind of experiment: SPR: effect of IP3 on DAN-eENTH binding to PtdIns(4,5)P2-containing vesicles. Particulars: 5 μM IP3; 50 nM DAN-eENTH; POPC/POPS/PtdIns(4,5)P2 (77:20:3) LUVs; 5 min incubation; pH 7.4. The procedure: (§1) With respect to FIG. 1, an L1 sensor chip was coated with POPC/POPS/PtdIns(4,5)P2 (77:20:3) LUVs. The proteins were incubated with a given concentration of IP3 for 5 minutes before injecting into the SPR instrument. Kinetic SPR measurements were performed in 20 mM Tris-HCL, pH 7.4, containing 0.16 KCl. […] A lower concentration of DAN-eENTH was used than that of PLCδ PH because the former has much higher affinity that the latter.

Experiment [3] has as its system PLCδ PH domain. In words: SPR: inhibition by IP3 of PLCδ PH domain binding to PtdIns(4,5)P2-containing vesicles. Conditions: 5 μM IP3; 250 nM PLCδ PH domain; POPC/POPS/PtdIns(4,5)P2 (77:20:3) LUVs; 5 min incubation; pH 7.4. The procedure:
as §1

Experiment [4] can be described thus: SPR analysis of lipid selectivity of Lact-C2 and mutant. The class given is binding. Conditions: FIG. 12(a), 12(b). The text has this: The Lact-C2 domain was converted into a PA-specific protein through protein engineering based on the crystal structure of Lact-C2 (J. Biol. Chem., (283)7230-7241 (2008)) and our molecular insight into PA and PS binding proteins. In the crystal structure, D80, H83, and Q85 interact with the serine head group of PS, so we mutated them to R, E, and K, respectively, to abrogate PS binding. Since PA has higher negative charge density without the head group, a mutant without PS binding may still interact with PA with high affinity. […] PA formation in NIH 3T3 cells in the presence of the phorbol ester, PMA, was successfully quantified.

Bounds are passed on as bounds.

`C[C@H](CCC(=O)O)C[C@H](C)C[C@H](C)C(=O)/C=C(\O)[C@H](C)C[C@H](C)C/C=C/[C@@H](C)[C@@H](O)[C@@H](C)[C@@H](O)C[C@@H]1CC[C@@](C)([C@H]2CC[C@@](C)([C@@H](C)O)O2)O1` [ionomycin]: the “[PtdIns(4,5)P2] in the plasma membrane upon ionomycin treatment” value in experiment [1] is reported as “lowered”.

On to `O=P(O)(O)O[C@@H]1[C@H](O)[C@H](O)[C@@H](OP(=O)(O)O)[C@H](OP(=O)(O)O)[C@H]1O` [IP3, inositol-(1,4,5)-triphosphate], for which the “effect on binding to PtdIns(4,5)P2-containing vesicles” value in experiment [2] is recorded as “minimal effect”. Also, the “inhibition of binding to PtdIns(4,5)P2-containing vesicles” value in experiment [3] is given as over 70%.

B1: Lact-C2: C2 domain of bovine lactadherin, SEQ ID NO:3 (protein)
chain: CTEPLGLKDNTIPNKQITASSYYKTWGLSAFSWFPYYARLDNQGKFNAWTAQTNSASEWLQIDLGSQKRVTGIITQGARDFGHIQYVAAYRVAYGDDGVTWTEYKDPGASESKIFPGNMDNNSHKKNIFETPFQARFVRIQPVAWHNRITLRVELLGC
modifications: C2 domain of bovine lactadherin.
With B1, the “lipid selectivity by SPR” value in experiment [4] is reported as “PS-specific”.

These data come from patent US8686115B2, “Compositions and methods for quantitatively monitoring lipids” (The Board of Trustees of the University of Illinois, priority 2009, dated 2014).
